Data taken from US11213029B2 (priority 2017, dated 2022).
“Also recorded” adds a separate entry of the source. Read-outs that look alike come from different tables or passages of the source.

Experiments:
Format in all cases: cell-based
[1] = test system: Xanthomonas oryzae pv. oryzae (Xoo); conditions: 8 mm paper disc, 30° C., 24 hours; for degree of inhibition against the growth of Xoo: 10 mM or 20 mM, dark condition, FIGS. 2 and 3; for degree of inhibition against the growth of Xoo (inhibition radius): 10 mM, FIG. 1
[2] = test system: Xanthomonas oryzae pv. oryzae (Xoo); conditions: biplate, paper disc on opposite side, 10 mM, 30° C., dark condition, 24 hours; FIG. 4
Magnaporthe oryzae = conditions: 500 mM (40 μl) on disc, 1.5 cm apart, 28° C., 96 hours; FIG. 7
Xanthomonas oryzae = conditions: by volatility, same manner as Example 3 (10 mM); FIG. 5

Compound	degree of inhibition against the growth of Xoo [1]	degree of inhibition against the growth of Xoo by volatility [2]	growth inhibition of Magnaporthe oryzae (Magnaporthe oryzae)	degree of inhibition against the growth of Xoo (inhibition radius) [1]	inhibitory effect against the growth of Xanthomonas oryzae compared to Xanthomonas fragariae and Xanthomonas axonopodis (Xanthomonas oryzae)	degree of inhibition against the growth of Xoo ([1]; listed as (S)-(+)-carvone)	degree of inhibition against the growth of Xoo ([1]; listed as (R)-(−)-carvone)
C=C(C)C1CCC2(C)OC2C1 (single isomer, unassigned; (-)) [(−)-limonene oxide]	effect of directly inhibiting the growth	did not show a strong inhibitory effect against the growth but showed a larger area for the inhibitory effect compared to those of carveol and carvone	effect of inhibiting the growth	–	–	–	–
C=C(C)[C@H]1CC=C(C)CC1 [(R)-(+)-limonene, R-(+)-limonene, reference compound]	–	no significant effect	–	–	–	–	–
C=C(C)[C@@H]1CC=C(C)CC1 [(S)-(−)-limonene, S-(−)-limonene, reference compound]	–	no significant effect	inhibited the growth	inhibitory effect	more specifically significant inhibitory effect against the growth of Xanthomonas oryzae	–	–
C=C(C)C1CC=C(C)[C@@H](O)C1 (stereo partly drawn) [L-carveol]	effect of directly inhibiting the growth; also recorded: particularly strong inhibitory effect	strong inhibitory effect	effect of inhibiting the growth	larger inhibition radius than that of limonene	more specifically significant inhibitory effect against the growth of Xanthomonas oryzae	–	–
C=C(C)[C@H]1CC=C(C)C(=O)C1 [S-(+)-carvone]	effect of directly inhibiting the growth	strong inhibitory effect	effect of inhibiting the growth	larger inhibition radius than that of limonene	more specifically significant inhibitory effect against the growth of Xanthomonas oryzae	particularly strong inhibitory effect	–
Cc1ccc(C(C)C)cc1O [carvacrol]	effect of directly inhibiting the growth	–	effect of inhibiting the growth	–	–	–	–
CC1=CCC(C(C)(C)O)CC1 (stereo not drawn) [α-terpineol]	effect of directly inhibiting the growth	–	effect of inhibiting the growth	–	–	–	–
(+)-isopulegol	effect of directly inhibiting the growth	–	effect of inhibiting the growth	–	–	–	–
(+)-limonene oxide	effect of directly inhibiting the growth	–	effect of inhibiting the growth	–	–	–	–
(S)-(−)-perillyl alcohol	effect of directly inhibiting the growth	–	effect of inhibiting the growth	–	–	–	–
(−)-isopulegol	effect of directly inhibiting the growth	–	effect of inhibiting the growth	–	–	–	–
R-(−)-carvone	effect of directly inhibiting the growth	strong inhibitory effect	effect of inhibiting the growth	–	–	–	particularly strong inhibitory effect
